Results from the NIST ThermoML archive (doi:10.1021/je049622g).

Test: xn = mol fraction of the nth substance listed
Settings: 311 K, Fluid (supercritical or subcritical phases), Pulse-echo method

CCCC [butane] + C
Settings | speed of sound [m/s]
2068 kPa, x2 = 0.894 | 381.6
2758 kPa, x2 = 0.894 | 378.5
3447 kPa, x2 = 0.894 | 375.5
3930 kPa, x2 = 0.158 | 760.1
3999 kPa, x2 = 0.158 | 760.7
4137 kPa, x2 = 0.158 | 762.3
4137 kPa, x2 = 0.894 | 372.7
4826 kPa, x2 = 0.158 | 778.7
4826 kPa, x2 = 0.894 | 370.1
5516 kPa, x2 = 0.158 | 793.5
5516 kPa, x2 = 0.894 | 368
6205 kPa, x2 = 0.158 | 805.6
6205 kPa, x2 = 0.894 | 366.4
6895 kPa, x2 = 0.158 | 817.6
6895 kPa, x2 = 0.894 | 365.2
7584 kPa, x2 = 0.894 | 364.8
8274 kPa, x2 = 0.894 | 365.1
8963 kPa, x2 = 0.894 | 366
9653 kPa, x2 = 0.894 | 367.8
10342 kPa, x2 = 0.158 | 866
10342 kPa, x2 = 0.894 | 370.3
11032 kPa, x2 = 0.894 | 373.7
11721 kPa, x2 = 0.894 | 378
12411 kPa, x2 = 0.894 | 383.1
13100 kPa, x2 = 0.894 | 388.9
13128 kPa, x2 = 0.724 | 314.6
13148 kPa, x2 = 0.724 | 316.5
13231 kPa, x2 = 0.724 | 323.7
13307 kPa, x2 = 0.724 | 329.7
13472 kPa, x2 = 0.724 | 344
13790 kPa, x2 = 0.158 | 906.3
13790 kPa, x2 = 0.894 | 395.6
13845 kPa, x2 = 0.724 | 366.1
14479 kPa, x2 = 0.724 | 395.6
14479 kPa, x2 = 0.894 | 402.9
15168 kPa, x2 = 0.724 | 420.7
15168 kPa, x2 = 0.894 | 410.8
15858 kPa, x2 = 0.724 | 443.6
15858 kPa, x2 = 0.894 | 419.4
16547 kPa, x2 = 0.724 | 464.8
16547 kPa, x2 = 0.894 | 428.4
17237 kPa, x2 = 0.724 | 484.4
17237 kPa, x2 = 0.894 | 438
